# Results taken from patent US12410155B2, “Salt form and crystal form of tetrahydrocyclohepta indazole compound” (Zhejiang Yangli Pharmaceutical Technology Co., Ltd., priority 2021, dated 2025).
# Read-outs that look alike come from different tables or passages of the source.
# What was measured:
# [1] = biological target: T1, Estrogen receptor α (ERα) (Homo sapiens, UniProt P03372); assay: ERα binding assay (radioactive ligand binding)
# T1 construct: host or cells: insect Sf9 cells
# T1 sequence (P03372 1-595): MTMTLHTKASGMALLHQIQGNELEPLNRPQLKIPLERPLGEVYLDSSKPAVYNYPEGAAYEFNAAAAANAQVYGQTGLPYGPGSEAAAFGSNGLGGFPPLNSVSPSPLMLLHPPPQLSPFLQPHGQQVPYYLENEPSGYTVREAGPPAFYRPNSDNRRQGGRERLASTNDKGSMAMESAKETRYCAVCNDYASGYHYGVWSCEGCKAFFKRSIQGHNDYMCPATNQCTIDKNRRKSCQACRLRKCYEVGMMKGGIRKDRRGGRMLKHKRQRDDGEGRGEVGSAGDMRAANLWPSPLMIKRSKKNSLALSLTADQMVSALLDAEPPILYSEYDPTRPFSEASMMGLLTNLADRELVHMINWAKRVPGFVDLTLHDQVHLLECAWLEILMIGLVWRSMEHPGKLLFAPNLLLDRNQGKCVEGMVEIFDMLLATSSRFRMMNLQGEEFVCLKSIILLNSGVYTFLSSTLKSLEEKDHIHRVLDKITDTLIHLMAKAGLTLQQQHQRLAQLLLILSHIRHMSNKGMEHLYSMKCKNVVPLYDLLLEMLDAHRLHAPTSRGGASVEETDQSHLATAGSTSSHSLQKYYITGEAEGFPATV
# Method: (1) ERα Binding Assay: Assessment of the Activity of the Compound of Formula (I) Via Radioactive Ligand Binding Assay
# The method employed in this study was adopted from scientific literature (Obourn, J. D. et al., Biochemistry, 1993, 32, 6229-6236).
# The IC50 values were obtained using MathIQ™ software (ID Business Solutions Ltd., UK) employing a nonlinear, least-squares regression method. The presented inhibition constant (Ki) was calculated using the Cheng and Prusoff equation (Cheng, Y., Prusoff, W. H., Biochem. Pharmacol. 22:3099-3108, 1973) based on the experimentally determined IC50 of the test compound, the concentration of the radioactive ligand used in the assay, and the historical value of the ligand's KD (determined experimentally by Eurofins Panlabs, Inc.). As shown, the Hill coefficient (nH), which defines the slope of the competitive binding curve, was calculated using MathIQ™.
# ERα = biological target: T2, ERα (Homo sapiens, UniProt P03372); assay: HEK293/GAL4/ERα antagonist assay (luciferase reporter); type: cell-based; settings: 1 nM estradiol, read-out: IC50 (nM), antagonistic effect
# T2 sequence (P03372 311-547 limits assumed): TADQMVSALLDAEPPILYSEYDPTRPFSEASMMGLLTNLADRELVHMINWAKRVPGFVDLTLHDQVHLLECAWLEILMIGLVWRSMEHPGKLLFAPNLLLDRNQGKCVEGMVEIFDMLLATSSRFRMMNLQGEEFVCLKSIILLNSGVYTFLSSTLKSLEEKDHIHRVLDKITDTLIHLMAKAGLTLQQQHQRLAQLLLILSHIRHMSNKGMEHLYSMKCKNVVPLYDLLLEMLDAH
# Method: (2) HEK293/GAL4/ERα Antagonist Assay
# DMEM (without phenol red) containing 10% charcoal-stripped serum (i.e., 450 mL DMEM and 50 mL charcoal-stripped serum in 500 mL medium)
# The antagonistic effect of the compound of formula (I) on ERα, was analyzed using triplicate wells with compound concentration ranging from 200 nM to 0.00256 nM.
# • 1) The HEK293/GAL4/ERα cell suspension was collected and centrifuged at 1000 rpm for 5 minutes. The supernatant was discarded, and the cells were resuspended in pre-warmed experimental medium. After counting, the cell suspension was diluted with experimental medium. 40000 cells per well were seeded into a 96-well cell culture plate, with 80 μL of cell suspension per well. […] Subsequently, 10 μL of assay medium containing 10 nM estradiol was added to each well. For blank controls, 10 μL of assay medium was added. A final estradiol concentration of 1 nM was ensured. […] The plate was incubated at 25° C. for 2 minutes. After incubation, the luminescence signal was then detected using an EnVision plate reader. Data Analysis:
# GraphPad Prism software was used to plot the data and calculate the IC50 values for the compound.
structure (smiles),measurement,setting,value
FCCCN1CC[C@H](Nc2cnc(C3=C(CC(F)(F)F)CCCc4c3ccc3[nH]nc(F)c43)cn2)C1 [Compound of formula (I)],nH (Hill coefficient),[1],1.22
same,IC50,[1]; 0.5 nM [3H] estradiol,0.36 nM
same,Ki,[1]; Cheng and Prusoff equation,0.1 nM
same,inhibition at 12.8 pM,"[1]; concentration 12.8 pM, read-out: Inhibition rate (%)",-4%
same,inhibition at 64 pM,"[1]; concentration 0.064 nM, read-out: Inhibition rate (%)",9%
same,inhibition at 0.00032 µM,"[1]; concentration 0.32 nM, read-out: Inhibition rate (%)",48%
same,inhibition at 0.0016 µM,"[1]; concentration 1.6 nM, read-out: Inhibition rate (%)",84%
same,inhibition at 0.008 µM,"[1]; concentration 8 nM, read-out: Inhibition rate (%)",97%
same,inhibition at 0.04 µM,"[1]; concentration 0.04 μM, read-out: Inhibition rate (%)",98%
same,inhibition at 0.2 µM,"[1]; concentration 0.2 μM, read-out: Inhibition rate (%)",97%
same,inhibition at 1 µM,"[1]; concentration 1 μM, read-out: Inhibition rate (%)",97%
same,IC50,ERα; Mean ± SD,0.0857 ± 0.0103 nM
same,IC50,ERα; N = 1,0.096 nM
same,IC50,ERα; N = 2,0.075 nM
